Where two headings read alike, the source gives them in different places.
What was measured:
[1] = tested on: cardiovascular activities / arrhythmia; details: cited from earlier work; for cardiovascular activities: Fukuda H. et al
anaesthetized rats [2] = details: for Arrhythmic scores / Antiarrhythmic effect: X ± SD; for Incidence of VF: n=10; for Death / animals with VF / animals without VF: of n=10
anaesthetized rats [3] = assay: animal or person; details: Rattus norvegicus
dogs = assay: Ouabain-induced arrhythmia in dogs; format: in vivo, dog; details: for Incidence of arrhythmia: I13 iv 3 mg/kg, lidocaine iv 12 mg/kg
Procedure: (iv, 12 mg/kg) on ouabain induced arrhythmia in dogs
(Ouabain administration for 30 min)

rabbits = assay: Electrically-induced ventricular fibrillation threshold (VFT) in rabbits; format: in vivo, rabbit
[4] = tested on: Langendorff's perfused rat hearts; assay: Lasting antiarrhythmic action after po administration, hearts removed and mounted on Langendorff's apparatus; format: in vivo; details: 10 mg/kg po at 1 hr before experiment (FIG. 4)
Procedure: 1, 3 and 6 hours after the administration of 100 mg/kg of I13 by p.o. to rats, the hearts were removed and mounted onto Langendorff's apparatus. […] (see FIG. 4)
FIG. 4. Influence of po I13 and mexiletine on the time course of reperfusion-induced arrhythmias in Langendorff's perfused rat hearts

For `O=C(NCC1CCCCN1)c1cc(OCC(F)(F)F)ccc1OCC(F)(F)F` (stereo not shown) [Flecainide], the side effects [1] is listed as “marked side effects of pulmonary fibrosis and thyroid function change” and the effect upon arrhythmia ([1]; clinical use) is listed as “good effect upon arrhythmia”.

`CCN(CC)CC(=O)Nc1c(C)cccc1C` [Lidocaine, reference compound] gave an Arrhythmic scores (anaesthetized rats [2]; iv 1.0 mg/kg) of 5.3 ± 0.8, an Antiarrhythmic effect (anaesthetized rats [2]; iv 1.0 mg/kg, coronary occlusion 5 min) of 1.0 ± 1.4 and an Antiarrhythmic effect (anaesthetized rats [2]; iv 1.0 mg/kg, coronary occlusion 10 min) of 0.38 ± 0.23. The “Incidence of VF” value (anaesthetized rats [2]; iv 1.0 mg/kg) was 50%, the Death (anaesthetized rats [2]; iv 1.0 mg/kg) was 0 and the “animals with VF” value (anaesthetized rats [2]; iv 1.0 mg/kg) was 3. The “animals without VF” value (anaesthetized rats [2]; iv 1.0 mg/kg) was 7, the Antiarrhythmic effect (anaesthetized rats [2]; iv 1.0 mg/kg, reperfusion 0.17 min) was 3.6 ± 1.3 and the Antiarrhythmic effect (anaesthetized rats [2]; iv 1.0 mg/kg, reperfusion 0.33 min) was 4.4 ± 1.5. For the same compound, the Antiarrhythmic effect (anaesthetized rats [2]; iv 1.0 mg/kg, reperfusion 0.5 min) was 5.3 ± 0.9, the Antiarrhythmic effect (anaesthetized rats [2]; iv 1.0 mg/kg, reperfusion 1 min) was 2.1 ± 1.7 and the Antiarrhythmic effect (anaesthetized rats [2]; iv 1.0 mg/kg, reperfusion 2 min) was 1.3 ± 1.0. It also gave an Antiarrhythmic effect (anaesthetized rats [2]; iv 1.0 mg/kg, reperfusion 3 min) of 0.6 ± 1.0, an Antiarrhythmic effect (anaesthetized rats [2]; iv 1.0 mg/kg, reperfusion 5 min) of 0.2 ± 0.4 and an Antiarrhythmic effect (anaesthetized rats [2]; iv 1.0 mg/kg, reperfusion 6 min) of 0.2 ± 0.4. For the same compound, the Antiarrhythmic effect (anaesthetized rats [2]; iv 1.0 mg/kg, reperfusion 7 min) was 0.2 ± 0.4, the Antiarrhythmic effect (anaesthetized rats [2]; iv 1.0 mg/kg, reperfusion 10 min) was 0.2 ± 0.4 and the Antiarrhythmic effect (anaesthetized rats [2]; iv 1.0 mg/kg, reperfusion 15 min) was 0.06 ± 0.2. For the same compound, the Antiarrhythmic effect (anaesthetized rats [2]; iv 1.0 mg/kg, reperfusion 25 min) was 0, the Arrhythmic scores (anaesthetized rats [2]; iv 3.0 mg/kg) was 1.7 ± 1.8 and the Antiarrhythmic effect (anaesthetized rats [2]; iv 3.0 mg/kg, coronary occlusion 5 min) was 0.2 ± 0.3. The Antiarrhythmic effect (anaesthetized rats [2]; iv 3.0 mg/kg, coronary occlusion 10 min) was 0.5 ± 0.6, the “Incidence of VF” value (anaesthetized rats [2]; iv 3.0 mg/kg) was 0% and the Death (anaesthetized rats [2]; iv 3.0 mg/kg) was 0. For the same compound, the “animals with VF” value (anaesthetized rats [2]; iv 3.0 mg/kg) was 0, the “animals without VF” value (anaesthetized rats [2]; iv 3.0 mg/kg) was 10 and the Antiarrhythmic effect (anaesthetized rats [2]; iv 3.0 mg/kg, reperfusion 0.17 min) was 1.2 ± 1.4. For the same compound, the Antiarrhythmic effect (anaesthetized rats [2]; iv 3.0 mg/kg, reperfusion 0.33 min) was 1.7 ± 1.8, the Antiarrhythmic effect (anaesthetized rats [2]; iv 3.0 mg/kg, reperfusion 0.5 min) was 1.1 ± 1.4 and the Antiarrhythmic effect (anaesthetized rats [2]; iv 3.0 mg/kg, reperfusion 1 min) was 0.8 ± 1.3. It also gave an Antiarrhythmic effect (anaesthetized rats [2]; iv 3.0 mg/kg, reperfusion 2 min) of 0.4 ± 1.0, an Antiarrhythmic effect (anaesthetized rats [2]; iv 3.0 mg/kg, reperfusion 3 min) of 0.3 ± 0.5 and an Antiarrhythmic effect (anaesthetized rats [2]; iv 3.0 mg/kg, reperfusion 5 min) of 0.4 ± 0.7. The Antiarrhythmic effect (anaesthetized rats [2]; iv 3.0 mg/kg, reperfusion 6 min) was 0.3 ± 0.7, the Antiarrhythmic effect (anaesthetized rats [2]; iv 3.0 mg/kg, reperfusion 7 min) was 0.2 ± 0.4 and the Antiarrhythmic effect (anaesthetized rats [2]; iv 3.0 mg/kg, reperfusion 10 min) was 0.2 ± 0.3. It also gave an Antiarrhythmic effect (anaesthetized rats [2]; iv 3.0 mg/kg, reperfusion 15 min) of 0.1 ± 0.3, an Antiarrhythmic effect (anaesthetized rats [2]; iv 3.0 mg/kg, reperfusion 25 min) of 0.1 ± 0.3 and an Antiarrhythmic effect (anaesthetized rats [2]; po 10 mg/kg, coronary occlusion 5 min) of 0.5 ± 0.5. It also gave an Antiarrhythmic effect (anaesthetized rats [2]; po 10 mg/kg, coronary occlusion 10 min) of 0.40 ± 0.22, an Antiarrhythmic effect (anaesthetized rats [2]; po 10 mg/kg, reperfusion 0.17 min) of 2.6 ± 1.6 and an Antiarrhythmic effect (anaesthetized rats [2]; po 10 mg/kg, reperfusion 0.33 min) of 2.6 ± 1.8. For the same compound, the Antiarrhythmic effect (anaesthetized rats [2]; po 10 mg/kg, reperfusion 0.5 min) was 2.5 ± 2.3, the Antiarrhythmic effect (anaesthetized rats [2]; po 10 mg/kg, reperfusion 1 min) was 2.2 ± 1.9 and the Antiarrhythmic effect (anaesthetized rats [2]; po 10 mg/kg, reperfusion 1.5 min) was 2.4 ± 2.2. The Antiarrhythmic effect (anaesthetized rats [2]; po 10 mg/kg, reperfusion 3 min) was 1.5 ± 2.5, the Antiarrhythmic effect (anaesthetized rats [2]; po 10 mg/kg, reperfusion 4 min) was 1.1 ± 1.9 and the Antiarrhythmic effect (anaesthetized rats [2]; po 10 mg/kg, reperfusion 5 min) was 1.0 ± 1.9. It also gave an Antiarrhythmic effect (anaesthetized rats [2]; po 10 mg/kg, reperfusion 6 min) of 0.8 ± 1.6, an Antiarrhythmic effect (anaesthetized rats [2]; po 10 mg/kg, reperfusion 7 min) of 1.3 ± 2.5 and an Antiarrhythmic effect (anaesthetized rats [2]; po 10 mg/kg, reperfusion 15 min) of 1.4 ± 2.9. The Antiarrhythmic effect (anaesthetized rats [2]; po 10 mg/kg, reperfusion 25 min) was 1.4 ± 2.9, the Antiarrhythmic effect (anaesthetized rats [2]; po 30 mg/kg, coronary occlusion 5 min) was 0.9 ± 0.7 and the Antiarrhythmic effect (anaesthetized rats [2]; po 30 mg/kg, coronary occlusion 10 min) was 1.0 ± 0.9. For the same compound, the Antiarrhythmic effect (anaesthetized rats [2]; po 30 mg/kg, reperfusion 0.17 min) was 1.7 ± 1.5, the Antiarrhythmic effect (anaesthetized rats [2]; po 30 mg/kg, reperfusion 0.33 min) was 1.8 ± 1.6 and the Antiarrhythmic effect (anaesthetized rats [2]; po 30 mg/kg, reperfusion 0.5 min) was 1.0 ± 1.0. It also gave an Antiarrhythmic effect (anaesthetized rats [2]; po 30 mg/kg, reperfusion 1 min) of 0.6 ± 0.9, an Antiarrhythmic effect (anaesthetized rats [2]; po 30 mg/kg, reperfusion 1.5 min) of 0.5 ± 0.6 and an Antiarrhythmic effect (anaesthetized rats [2]; po 30 mg/kg, reperfusion 3 min) of 0.2 ± 0.2. For the same compound, the Antiarrhythmic effect (anaesthetized rats [2]; po 30 mg/kg, reperfusion 4 min) was 0.2 ± 0.2, the Antiarrhythmic effect (anaesthetized rats [2]; po 30 mg/kg, reperfusion 5 min) was 0.2 ± 0.2 and the Antiarrhythmic effect (anaesthetized rats [2]; po 30 mg/kg, reperfusion 6 min) was 0.2 ± 0.3. The Antiarrhythmic effect (anaesthetized rats [2]; po 30 mg/kg, reperfusion 7 min) was 0.2 ± 0.3, the Antiarrhythmic effect (anaesthetized rats [2]; po 30 mg/kg, reperfusion 15 min) was 0.3 ± 0.3 and the Antiarrhythmic effect (anaesthetized rats [2]; po 30 mg/kg, reperfusion 25 min) was 0.2 ± 0.3. The ED50 (anaesthetized rats [3]; iv) was 2.23 mg/kg, the oral administration ([1]; clinical use) was “can not be administered orally” and the “prevention of ventricular fibrillation” value ([1]; clinical use) was “can not effectively prevent ventricular fibrillation”. The suppression of arrhythmia ([1]; clinical use) was “can effectively suppress arrhythmia”, the Incidence of arrhythmia (dogs; 0 min (before administration)) was 97 ± 8% and the Incidence of arrhythmia (dogs; 5 min) was 83 ± 41%. The Incidence of arrhythmia (dogs; 10 min) was 74 ± 42%, the Incidence of arrhythmia (dogs; 15 min) was 55 ± 46% and the Incidence of arrhythmia (dogs; 20 min) was 42 ± 45%. For the same compound, the Incidence of arrhythmia (dogs; 25 min) was 16 ± 24%, the Incidence of arrhythmia (dogs; 30 min) was 10 ± 17% and the Incidence of arrhythmia (dogs; 35 min) was 8 ± 10%. It also gave an Incidence of arrhythmia (dogs; 40 min) of 28 ± 25%, an Incidence of arrhythmia (dogs; 45 min) of 10 ± 14% and an Incidence of arrhythmia (dogs; 50 min) of 8 ± 15%. The Incidence of arrhythmia (dogs; 60 min) was 10 ± 21%, the reoccurrence of arrhythmia (dogs; within 4 hour period) was “reoccurrences of VPBs, VT and VF have been detected” and the “VFT Before” value (rabbits; baseline, iv 15 mg/kg group) was 5.6 ± 0.9 volt. For the same compound, the “VFT After” value (rabbits; iv 15 mg/kg) was 8.8 ± 1.6 volt and the ΔVFT (rabbits; iv 15 mg/kg) was 3.3 ± 0.9 volt.

In the case of `COc1ccc2cc3[n+](cc2c1OC)CCc1cc2c(cc1-3)OCO2` [berberine], the cardiovascular activities [1] is listed as “highly potent cardiovascular activities”.

For `COc1ccc2cc3[n+](cc2c1O)CCc1cc2c(cc1-3)OCO2` [berberubine], the cardiovascular activities [1] is given as “highly potent cardiovascular activities”.

For `Cc1cccc(C)c1OCC(C)N` (stereo not shown) [mexiletine, reference compound], the ke [4] was 0.075.

In the case of `COc1cc2c(cc1OC)-c1cc3ccc(OC)c(OC)c3c[n+]1CC2` [palmatine], the cardiovascular activities [1] is listed as “highly potent cardiovascular activities”.

In the case of `CCCNCC(O)COc1ccccc1C(=O)CCc1ccccc1` (stereo not shown) [propafenon, reference compound], the Arrhythmic scores (anaesthetized rats [2]; po 10 mg/kg) is reported as 2.6 ± 1.6, the “Incidence of VF” value (anaesthetized rats [2]; po 10 mg/kg) is reported as 20% and the Death (anaesthetized rats [2]; po 10 mg/kg) is reported as 2. The “animals with VF” value (anaesthetized rats [2]; po 10 mg/kg) was 1, the “animals without VF” value (anaesthetized rats [2]; po 10 mg/kg) was 7 and the Arrhythmic scores (anaesthetized rats [2]; po 30 mg/kg) was 1.8 ± 1.6. For the same compound, the “Incidence of VF” value (anaesthetized rats [2]; po 30 mg/kg) was 0%, the Death (anaesthetized rats [2]; po 30 mg/kg) was 0 and the “animals with VF” value (anaesthetized rats [2]; po 30 mg/kg) was 0. The “animals without VF” value (anaesthetized rats [2]; po 30 mg/kg) was 10 and the ED50 (anaesthetized rats [3]; po) was 19.3 mg/kg.

Source: patent publication US5470852A, “Tetrahydroprotoberberine quaternary ammonium compounds useful in for treating arrhythmia” (priority 1991, dated 1995)
